# According to ChEMBL document CHEMBL2413072, “Synthesis and in vitro anticancer studies of novel C-2 arylidene congeners of lantadenes” (2013):
# Tests used:
# Assay type in all cases: functional
# SW-620 = assay: Growth inhibition of human SW620 cells by sulforhodamine B assay
# A549 [1] = assay: Growth inhibition of human A549/ATCC cells by sulforhodamine B assay
# UACC-62 [2] = assay: Growth inhibition of human UACC62 cells assessed as cell growth at 10^-8 M by sulforhodamine B assay; details: read-out: Activity
# SK-MEL-5 = assay: Growth inhibition of human SK-MEL-5 cells assessed as cell growth at 10^-8 M by sulforhodamine B assay; details: read-out: Activity
# SF-539 = assay: Growth inhibition of human SF539 cells assessed as cell growth at 10^-8 M by sulforhodamine B assay; details: read-out: Activity
# COLO 205 = assay: Growth inhibition of human COLO205 cells assessed as cell growth at 10^-8 M by sulforhodamine B assay; details: read-out: Activity
# SR [3] = assay: Growth inhibition of human SR cells assessed as cell growth at 10^-8 M by sulforhodamine B assay; details: read-out: Activity
# BT-549 [4] = assay: Growth inhibition of human BT549 cells by sulforhodamine B assay
# [5] = Growth inhibition of human Hs 578T cells by sulforhodamine B assay
# TK-10 [6] = assay: Growth inhibition of human TK10 cells by sulforhodamine B assay
# RXF 393 = assay: Growth inhibition of human RXF393 cells by sulforhodamine B assay
# ACHN [7] = assay: Growth inhibition of human ACHN cells by sulforhodamine B assay
# OVCAR-3 = assay: Growth inhibition of human OVCAR3 cells by sulforhodamine B assay
# IGROV-1 [8] = assay: Growth inhibition of human IGROV1 cells by sulforhodamine B assay
# DU-145 = assay: Growth inhibition of human DU145 cells assessed as cell growth at 10^-4 M by sulforhodamine B assay; details: read-out: Activity
# UO-31 = assay: Growth inhibition of human UO31 cells assessed as cell growth at 10^-4 M by sulforhodamine B assay; details: read-out: Activity
# IGROV-1 [9] = assay: Growth inhibition of human IGROV1 cells assessed as cell growth at 10^-4 M by sulforhodamine B assay; details: read-out: Activity
# U-251 = assay: Growth inhibition of human U251 cells assessed as cell growth at 10^-4 M by sulforhodamine B assay; details: read-out: Activity
# LOX IMVI [10] = assay: Growth inhibition of human LOXIMVI cells assessed as cell growth at 10^-4 M by sulforhodamine B assay; details: read-out: Activity
# SF-295 = assay: Growth inhibition of human SF295 cells assessed as cell growth at 10^-4 M by sulforhodamine B assay; details: read-out: Activity
# SR [11] = assay: Growth inhibition of human SR cells assessed as cell growth at 10^-4 M by sulforhodamine B assay; details: read-out: Activity
# A549 [12] = assay: Growth inhibition of human A549/ATCC cells assessed as cell growth at 10^-4 M by sulforhodamine B assay; details: read-out: Activity
# T47D [13] = assay: Growth inhibition of human T47D cells assessed as cell growth at 10^-6 M by sulforhodamine B assay; details: read-out: Activity
# SN12C = assay: Growth inhibition of human SN12C cells assessed as cell growth at 10^-6 M by sulforhodamine B assay; details: read-out: Activity
# TK-10 [14] = assay: Growth inhibition of human TK10 cells assessed as cell growth at 10^-6 M by sulforhodamine B assay; details: read-out: Activity
# A498 = assay: Growth inhibition of human A498 cells assessed as cell growth at 10^-6 M by sulforhodamine B assay; details: read-out: Activity
# LOX IMVI [15] = assay: Growth inhibition of human LOXIMVI cells assessed as cell growth at 10^-6 M by sulforhodamine B assay; details: read-out: Activity
# SF-268 [16] = assay: Growth inhibition of human SF268 cells assessed as cell growth at 10^-6 M by sulforhodamine B assay; details: read-out: Activity
# NCI-H460 = assay: Growth inhibition of human NCI-H460 cells assessed as cell growth at 10^-6 M by sulforhodamine B assay; details: read-out: Activity
# T47D [17] = assay: Growth inhibition of human T47D cells assessed as cell growth at 10^-7 M by sulforhodamine B assay; details: read-out: Activity
# TK-10 [18] = assay: Growth inhibition of human TK10 cells assessed as cell growth at 10^-7 M by sulforhodamine B assay; details: read-out: Activity
# ACHN [19] = assay: Growth inhibition of human ACHN cells assessed as cell growth at 10^-7 M by sulforhodamine B assay; details: read-out: Activity
# 786-0 = assay: Growth inhibition of human 786-0 cells assessed as cell growth at 10^-7 M by sulforhodamine B assay; details: read-out: Activity
# UACC-62 [20] = assay: Growth inhibition of human UACC62 cells assessed as cell growth at 10^-7 M by sulforhodamine B assay; details: read-out: Activity
# UACC-257 = assay: Growth inhibition of human UACC257 cells assessed as cell growth at 10^-7 M by sulforhodamine B assay; details: read-out: Activity
# SK-MEL-2 = assay: Growth inhibition of human SK-MEL-2 cells assessed as cell growth at 10^-7 M by sulforhodamine B assay; details: read-out: Activity
# SF-268 [21] = assay: Growth inhibition of human SF268 cells assessed as cell growth at 10^-7 M by sulforhodamine B assay; details: read-out: Activity
# HT-29 = assay: Growth inhibition of human HT-29 cells assessed as cell growth at 10^-7 M by sulforhodamine B assay; details: read-out: Activity
# MDA-MB-468 = assay: Growth inhibition of human MDA-MB-468 cells assessed as cell growth at 10^-8 M by sulforhodamine B assay; details: read-out: Activity
# BT-549 [22] = assay: Growth inhibition of human BT549 cells assessed as cell growth at 10^-8 M by sulforhodamine B assay; details: read-out: Activity
# [23] = read-out: LC50 (the source's name)
# [24] = read-out: pLC50 (the source's name) (converted)
smiles,measurement,setting,value
CC(C)=CC(=O)O[C@@H]1CC(C)(C)C[C@H]2C3=CC[C@@H]4[C@@]5(C)CCC(=O)C(C)(C)[C@@H]5CC[C@@]4(C)[C@]3(C)CC[C@@]12C(=O)O,GI50,SW-620; read-out: GI50,4 µM
same,CC50,SW-620; [23],> 100 µM
same,TGI,SW-620; read-out: TGI,36.1 µM
same,GI50,SW-620; read-out: pGI50 (converted),3.98 µM
same,CC50,SW-620; [24],> 100 µM
same,TGI,SW-620; read-out: pTGI (converted),36.3 µM
same,GI50,A549 [1]; read-out: GI50,797 nM
same,CC50,A549 [1]; [23],> 100 µM
same,TGI,A549 [1]; read-out: TGI,15.6 µM
same,GI50,A549 [1]; read-out: pGI50 (converted),794 nM
same,CC50,A549 [1]; [24],> 100 µM
same,TGI,A549 [1]; read-out: pTGI (converted),15.5 µM
same,growth at 0.01 µM,UACC-62 [2],102%
same,growth at 0.01 µM,SK-MEL-5,99%
same,growth at 0.01 µM,SF-539,93%
same,growth at 0.01 µM,COLO 205,106%
same,growth at 0.01 µM,SR [3],109%
same,GI50,BT-549 [4]; read-out: GI50,4.79 µM
same,CC50,BT-549 [4]; [23],> 100 µM
same,TGI,BT-549 [4]; read-out: TGI,25 µM
same,GI50,BT-549 [4]; read-out: pGI50 (converted),4.79 µM
same,CC50,BT-549 [4]; [24],> 100 µM
same,TGI,BT-549 [4]; read-out: pTGI (converted),25.1 µM
same,GI50,[5]; read-out: GI50,4.16 µM
same,CC50,[5]; [23],> 100 µM
same,TGI,[5]; read-out: TGI,53.6 µM
same,GI50,[5]; read-out: pGI50 (converted),4.17 µM
same,CC50,[5]; [24],> 100 µM
same,TGI,[5]; read-out: pTGI (converted),53.7 µM
same,GI50,TK-10 [6]; read-out: GI50,7.02 µM
same,CC50,TK-10 [6]; [23],> 100 µM
same,TGI,TK-10 [6]; read-out: TGI,49.6 µM
same,GI50,TK-10 [6]; read-out: pGI50 (converted),7.08 µM
same,CC50,TK-10 [6]; [24],> 100 µM
same,TGI,TK-10 [6]; read-out: pTGI (converted),50.1 µM
same,GI50,RXF 393; read-out: GI50,3.31 µM
same,CC50,RXF 393; [23],63.5 µM
same,TGI,RXF 393; read-out: TGI,16.3 µM
same,GI50,RXF 393; read-out: pGI50 (converted),3.31 µM
same,CC50,RXF 393; [24],63.1 µM
same,TGI,RXF 393; read-out: pTGI (converted),16.2 µM
same,GI50,ACHN [7]; read-out: GI50,2.99 µM
same,CC50,ACHN [7]; [23],> 100 µM
same,TGI,ACHN [7]; read-out: TGI,27.9 µM
same,GI50,ACHN [7]; read-out: pGI50 (converted),3.02 µM
same,CC50,ACHN [7]; [24],> 100 µM
same,TGI,ACHN [7]; read-out: pTGI (converted),28.2 µM
same,GI50,OVCAR-3; read-out: GI50,4.08 µM
same,CC50,OVCAR-3; [23],59.1 µM
same,TGI,OVCAR-3; read-out: TGI,19 µM
same,GI50,OVCAR-3; read-out: pGI50 (converted),4.07 µM
same,CC50,OVCAR-3; [24],58.9 µM
same,TGI,OVCAR-3; read-out: pTGI (converted),19.1 µM
same,GI50,IGROV-1 [8]; read-out: GI50,5.36 µM
same,CC50,IGROV-1 [8]; [23],> 100 µM
same,TGI,IGROV-1 [8]; read-out: TGI,38.4 µM
same,GI50,IGROV-1 [8]; read-out: pGI50 (converted),5.37 µM
same,CC50,IGROV-1 [8]; [24],> 100 µM
same,TGI,IGROV-1 [8]; read-out: pTGI (converted),38 µM
same,growth at 100 µM,DU-145,-51%
same,growth at 100 µM,UO-31,-13%
same,growth at 100 µM,IGROV-1 [9],-23%
same,growth at 100 µM,U-251,-49%
same,growth at 100 µM,LOX IMVI [10],-47%
same,growth at 100 µM,SF-295,-59%
same,growth at 100 µM,SR [11],-15%
same,growth at 100 µM,A549 [12],-41%
same,growth at 1 µM,T47D [13],92%
same,growth at 1 µM,SN12C,80%
same,growth at 1 µM,TK-10 [14],98%
same,growth at 1 µM,A498,61%
same,growth at 1 µM,LOX IMVI [15],87%
same,growth at 1 µM,SF-268 [16],93%
same,growth at 1 µM,NCI-H460,71%
same,growth at 0.1 µM,T47D [17],96%
same,growth at 0.1 µM,TK-10 [18],93%
same,growth at 0.1 µM,ACHN [19],92%
same,growth at 0.1 µM,786-0,99%
same,growth at 0.1 µM,UACC-62 [20],97%
same,growth at 0.1 µM,UACC-257,93%
same,growth at 0.1 µM,SK-MEL-2,94%
same,growth at 0.1 µM,SF-268 [21],94%
same,growth at 0.1 µM,HT-29,95%
same,growth at 0.01 µM,MDA-MB-468,92%
same,growth at 0.01 µM,BT-549 [22],114%
